Counter-ions that a name gives are not always drawn.
Each compound was assayed against human KV7.2/KV7.3 (Homo sapiens (Human), UniProt O43525+O43526) (assay: Potassium flux assay (IPG-2 AM dye)). Details: TREX HEK 293 or HEK 293 cells expressing human KV7.2/KV7.3; arithmetic mean values.
Assay type: cell-based
Description: This potassium flux assay employs the cell-permeable, potassium-sensitive dye, IPG-2 AM, to quantify potassium ion flux through potassium channels.
In general, TREX HEK 293 or HEK 293 cells were stably transfected with either an inducible or non-inducible expression vector containing the full-length cDNA coding for the desired human KV7.2/KV7.3 or in combination with another full-length cDNA for a second desired human KV7 potassium channel. Potassium channel-expressing cell lines were induced with tetracycline (1 μg/mL), if required, and plated on 384-well poly-D-lysine (PDL)-coated plates in culture media (DMEM, containing 10% FBS and 1% L-glutamine). After overnight incubation, culture media was removed and cells were loaded with 5 μM IPG-2 AM dye for 1 hour in Assay buffer (140 mM NaCl, 20 mM RbCl, 2 mM CaCl2, 1 mM MgCl2, 10 mM HEPES (4-(2-hydroxyethyl)-1-piperazineethanesulfonic acid buffer), 10 mM glucose, adjusted with Tris to pH 7.4). Excess dye was removed, and cells incubated at room temperature for 20 minutes with or without test compound. A Hamamatsu FDSS μCell was used to perform a 1:1 addition of K challenge buffer (150 mM NaCl, 10 mM HEPES, 2 mM CaCl2, 10 mM KCl, 1 mM MgCl2, 10 mM glucose, adjusted with Tris to pH 7.4 for human KV7.2/KV7.3, and simultaneously read plates at excitation wavelength of 530 nm and emission wavelength of 558 nm. Non-potassium channel-mediated potassium influx was determined in the presence of DMSO, and maximal influx was determined in the presence of a known KV7.x channel modulator. For each test compound, a concentration response curve was generated with 16 concentrations points, 2-fold serial dilution starting at 30 μM and an EC50 value was determined.

EC50 [nM]	Structure (SMILES)
≥ 30000	O=C(Nc1ccc2c(Nc3ccc(Cl)nc3)nccc2c1)C1(CO)CC1 [Example 401, N-(1-((6-chloropyridin-3-yl)amino)isoquinolin-6-yl)-1-(hydroxymethyl)cyclopropane-1-carboxamide]
< 1000	CC(Oc1ccc2c(Nc3cnc(Cl)nc3)nccc2c1)C1(C#N)CC1 (stereo not drawn) [Example 385, 1-(1-((1-((2-chloropyrimidin-5-yl)amino)isoquinolin-6-yl)oxy)ethyl)cyclopropane-1-carbonitrile]
1000 to 10000	Clc1ccc(Nc2nccc3cc(OCc4cnn5c4CCCC5)ccc23)cn1 [Example 285]
1000 to 10000	Clc1ccc(Nc2nccc3cc(OCC4CCCO4)ccc23)cn1 (stereo not drawn) [Example 217, N-(6-chloropyridin-3-yl)-6-((tetrahydrofuran-2-yl)methoxy)isoquinolin-1-amine]
< 1000	CC(=O)N[C@H]1CCC[C@@H](Oc2ccc3c(Nc4cnc(Cl)nc4)nccc3c2)C1 [Example 378, N-((1 S,3R)-3-((1-((2-chloropyrimidin-5-yl)amino)isoquinolin-6-yl)oxy)cyclohexyl)acetamide]
1000 to 10000	C[C@]1(COc2ccc3c(Nc4ccc(Cl)nc4)nccc3c2)CCCO1 [Example 302, (R)—N-(6-chloropyridin-3-yl)-6-((2-methyltetrahydrofuran-2-yl)methoxy)isoquinolin-1-amine]
1000 to 10000	Clc1ccc(Nc2nccc3cc(Cc4ccccn4)ccc23)cn1 [Example 426, N-(6-chloropyridin-3-yl)-6-(pyridin-2-ylmethyl)isoquinolin-1-amine]
< 1000	Cn1cc(COc2cnc3c(Nc4ccc(Cl)nc4)nccc3c2)cn1 [Example 252, N-(6-chloropyridin-3-yl)-3-((1-methyl-1H-pyrazol-4-yl)methoxy)-1,7-naphthyridin-8-amine]
1000 to 10000	COCCn1cc(COc2ccc3c(Nc4ccc(Cl)nc4)nccc3c2)cn1 [Example 336, N-(6-chloropyridin-3-yl)-6-((1-(2-methoxyethyl)-1H-pyrazol-4-yl)methoxy)isoquinolin-1-amine]
1000 to 10000	CC(Cc1cnn(C)c1)Oc1ccc2c(Nc3ccc(Cl)nc3)nccc2c1 (stereo not drawn) [Example 296, N-(6-chloropyridin-3-yl)-6-((1-(1-methyl-1H-pyrazol-4-yl)propan-2-yl)oxy)isoquinolin-1-amine]
1000 to 10000	CC(=O)N1CCC(Oc2ccc3c(Nc4ccc(Cl)nc4)nccc3c2)CC1 [Example 312, 1-(4-((1-((6-chloropyridin-3-yl)amino)isoquinolin-6-yl)oxy)piperidin-1-yl)ethan-1-one]
1000 to 10000	Cn1cc(OCc2ccc3c(Nc4ccc(Cl)nc4)nccc3c2)cn1 [Example 249, N-(6-chloropyridin-3-yl)-6-(((1-methyl-1H-pyrazol-4-yl)oxy)methyl)isoquinolin-1-amine]
1000 to 10000	FC(F)C(F)(F)COc1ccc2c(Nc3ccc(Cl)nc3)nccc2c1 [Example 409, N-(6-chloropyridin-3-yl)-6-(2,2,3,3-tetrafluoropropoxy)isoquinolin-1-amine]
1000 to 10000	CC1(C)CC[C@H](COc2ccc3c(Nc4ccc(Cl)nc4)nccc3c2)O1 [Example 416, (R)-N-(6-chloropyridin-3-yl)-6-((5,5-dimethyltetrahydrofuran-2-yl)methoxy)isoquinolin-1-amine]
< 1000	Cc1ncc(Nc2nccc3cc(OCc4c[nH]nc4C)ccc23)cn1 [Example 396, 6-((3-methyl-1H-pyrazol-4-yl)methoxy)-N-(2-methylpyrimidin-5-yl)isoquinolin-1-amine]
1000 to 10000	CS(=O)(=Nc1ccc2c(Nc3ccc(Cl)nc3)nccc2c1)C1COC1 (stereo in doubt) [Example 277, (R)-((1-((6-chloropyridin-3-yl)amino)isoquinolin-6-yl)imino)(methyl)(oxetan-3-yl)-λ^6-sulfanone)]
1000 to 10000	Cn1cc(Oc2ccc3c(Nc4ccc(Cl)nc4)nccc3c2)cn1 [Example 311, N-(6-chloropyridin-3-yl)-6-((1-methyl-1H-pyrazol-4-yl)oxy)isoquinolin-1-amine]
1000 to 10000	Clc1ccc(Nc2nccc3cc(COc4cn[nH]c4)ccc23)cn1 [Example 304, 6-(((1H-pyrazol-4-yl)oxy)methyl)-N-(6-chloropyridin-3-yl)isoquinolin-1-amine]
1000 to 10000	COCCS(=O)(=Nc1ccc2c(Nc3ccc(Cl)nc3)nccc2c1)C1CC1 (stereo not drawn) [Example 271, ((1-((6-chloropyridin-3-yl)amino)isoquinolin-6-yl)imino)(cyclopropyl)(2-methoxyethyl)-λ^6-sulfanone]
1000 to 10000	Clc1ccc(Nc2nccc3cc(OC[C@H]4CCN(Cc5ccccc5)C4)ccc23)cn1 [Example 284, (S)-6-((1-benzylpyrrolidin-3-yl)methoxy)-N-(6-chloropyridin-3-yl)isoquinolin-1-amine]
< 1000	N#CC1(COc2cnc3c(Nc4cnc(Cl)nc4)nccc3c2)CC1 [Example 254, 1-(((8-((2-chloropyrimidin-5-yl)amino)-1,7-naphthyridin-3-yl)oxy)methyl)cyclopropane-1-carbonitrile]
1000 to 10000	Cc1ncc(Nc2nccc3cc(OCc4ccon4)ccc23)cn1 [Example 222, 6-(isoxazol-3-ylmethoxy)-N-(2-methylpyrimidin-5-yl)isoquinolin-1-amine]

The remaining lines, values behind:

Structure (SMILES)	EC50 [nM]
N#CC1(COc2ccc3c(Nc4ccc(Cl)nc4)nccc3c2)CC1 [Example 80, 1-(((1-((6-chloropyridin-3-yl)amino)isoquinolin-6-yl)oxy)methyl)cyclopropane-1-carbonitrile]	< 1000
Cn1nc(COc2ccc3c(Nc4ccc(Cl)nc4)nccc3c2)cc1C#N [Example 62, 3-(((1-((6-chloropyridin-3-yl)amino)isoquinolin-6-yl)oxy)methyl)-1-methyl-1H-pyrazole-5-carbonitrile]	1000 to 10000
Cc1nn(C)cc1[C@@H](C)Oc1ccc2c(Nc3ccc(Cl)nc3)nccc2c1 [Example 174, (R)—N-(6-chloropyridin-3-yl)-6-(1-(1,3-dimethyl-1H-pyrazol-4-yl)ethoxy)isoquinolin-1-amine]	1000 to 10000
Clc1ccc(Nc2nccc3cc(OCc4ccon4)ccc23)cn1 [Example 215, N-(6-chloropyridin-3-yl)-6-(isoxazol-3-ylmethoxy)isoquinolin-1-amine]	< 1000
COc1cnc(Nc2ccc(Cl)nc2)c2[nH]ccc12 [Example 15, N-(6-chloropyridin-3-yl)-4-methoxy-1H-pyrrolo[2,3-c]pyridin-7-amine formate]	1000 to 10000
COC1(COc2ccc3c(Nc4cnc(C)nc4)nccc3c2)CC1 [Example 178, 6-((1-methoxycyclopropyl)methoxy)-N-(2-methylpyrimidin-5-yl)isoquinolin-1-amine]	1000 to 10000
Clc1ccc(Nc2nccc3cc(OCn4cccn4)ccc23)cn1 [Example 82, 6-((1H-pyrazol-1-yl)methoxy)-N-(6-chloropyridin-3-yl)isoquinolin-1-amine]	1000 to 10000
Fc1ccc2c(Nc3cnc(Cl)nc3)nccc2c1 [Example 23, N-(2-chloropyrimidin-5-yl)-6-fluoroisoquinolin-1-amine]	1000 to 10000
CC1(COc2ccc3c(Nc4ccc(Cl)nc4)nccc3c2)CC1 [Example 179, N-(6-chloropyridin-3-yl)-6-((1-methylcyclopropyl)methoxy)isoquinolin-1-amine]	1000 to 10000
Cn1cnnc1COc1ccc2c(Nc3ccc(Cl)nc3)nccc2c1 [Example 87, N-(6-chloropyridin-3-yl)-6-((4-methyl-4H-1,2,4-triazol-3-yl)methoxy)isoquinolin-1-amine]	1000 to 10000
N#CCC1(COc2ccc3c(Nc4cnc(Cl)nc4)nccc3c2)CC1 [Example 147, 2-(1-(((1-((2-chloropyrimidin-5-yl)amino)isoquinolin-6-yl)oxy)methyl)cyclopropyl)acetonitrile]	< 1000
Clc1ccc(Nc2nccc3scnc23)cn1 [Example 13, N-(6-chloropyridin-3-yl)thiazolo[4,5-c]pyridin-4-amine]	1000 to 10000
Cc1csc2c(Nc3ccc(Cl)nc3)nccc12 [Example 17, N-(6-chloropyridin-3-yl)-3-methylthieno[2,3-c]pyridin-7-amine]	1000 to 10000
Cc1ccc(Nc2nccc3cc(OCC4CC4)ccc23)cn1 [Example 28, 6-(cyclopropylmethoxy)-N-(6-methylpyridin-3-yl)isoquinolin-1-amine]	1000 to 10000
CC[C@H](OC)c1ccc2c(Nc3ccc(Cl)nc3)nccc2c1 [Example 131, (S)—N-(6-chloropyridin-3-yl)-6-(1-methoxypropyl)isoquinolin-1-amine]	≥ 30000
Clc1ccc(Nc2nccc3cc(OCc4cccnc4)ccc23)cn1 [Example 195, N-(6-chloropyridin-3-yl)-6-(pyridin-3-ylmethoxy)isoquinolin-1-amine]	< 1000
N#CC1(Oc2ccc3c(Nc4cnc(Cl)nc4)nccc3c2)CC1 [Example 60, 1-((1-((2-chloropyrimidin-5-yl)amino)isoquinolin-6-yl)oxy)cyclopropane-1-carbonitrile]	1000 to 10000

Source: US20240101531A1, “PYRIDINAMINE DERIVATIVES AND THEIR USE AS POTASSIUM CHANNEL MODULATORS” (Xenon Pharmaceuticals Inc., priority 2022, published 2024)
